{"source": "ChEMBL document CHEMBL1139717", "about": "“Solid-phase combinatorial approach for the optimization of soluble epoxide hydrolase inhibitors” (Bioorg Med Chem Lett, 2006)", "key": {"[1]": {"biological_target": "T1, Bifunctional epoxide hydrolase 2 (Homo sapiens) (UniProt P34913)", "T1 sequence (whole entry)": "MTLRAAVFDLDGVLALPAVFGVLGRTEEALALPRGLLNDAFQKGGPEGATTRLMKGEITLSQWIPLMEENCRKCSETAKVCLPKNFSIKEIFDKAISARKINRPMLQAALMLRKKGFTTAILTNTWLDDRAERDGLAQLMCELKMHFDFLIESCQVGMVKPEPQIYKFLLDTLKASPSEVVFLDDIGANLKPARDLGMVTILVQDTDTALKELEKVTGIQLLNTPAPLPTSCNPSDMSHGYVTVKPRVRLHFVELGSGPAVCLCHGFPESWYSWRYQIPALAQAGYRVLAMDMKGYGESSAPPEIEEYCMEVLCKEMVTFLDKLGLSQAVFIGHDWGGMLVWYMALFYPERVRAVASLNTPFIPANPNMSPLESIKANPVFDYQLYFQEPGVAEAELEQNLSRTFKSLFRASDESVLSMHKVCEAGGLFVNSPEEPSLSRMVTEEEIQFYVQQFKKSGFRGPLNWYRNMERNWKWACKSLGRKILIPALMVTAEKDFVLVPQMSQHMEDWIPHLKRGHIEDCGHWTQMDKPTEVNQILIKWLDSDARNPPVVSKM", "experiment": "Inhibition of human recombinant soluble epoxide hydrolase at 100 nM by end-point fluorescent assay"}, "[2]": {"biological_target": "T2, Bifunctional epoxide hydrolase 2 (Homo sapiens, UniProt P34913)", "T2 sequence (P34913 whole entry)": "T1 sequence (whole entry)", "experiment": "Inhibition of human recombinant soluble epoxide hydrolase by kinetic fluorescent assay"}}, "data": [{"smiles": "Cc1cccc(C)c1NC(=O)N[C@H]1CC[C@@H](Oc2ccc(F)cc2)CC1", "values": [{"measurement": "inhibition", "setting": "[1]", "result": 4, "unit": "%"}, {"measurement": "IC50", "setting": "[2]", "result": 1200, "unit": "nM"}]}, {"smiles": "O=C(Nc1ccc(OC(F)(F)F)cc1)N[C@H]1CC[C@@H](Oc2ccc(F)cc2)CC1", "values": [{"measurement": "inhibition", "setting": "[1]", "result": 84, "unit": "%"}]}, {"smiles": "CN(C)c1cccc2c(S(=O)(=O)NCCNC(=O)NC34CC5CC(CC(C5)C3)C4)cccc12", "values": [{"measurement": "inhibition", "setting": "[1]", "result": 19, "unit": "%"}, {"measurement": "IC50", "setting": "[2]", "result": 30, "unit": "nM"}]}, {"smiles": "O=C(NC1CCCCCC1)N[C@H]1CC[C@@H](Oc2ccc(F)cc2)CC1", "values": [{"measurement": "inhibition", "setting": "[1]", "result": 87, "unit": "%"}, {"measurement": "IC50", "setting": "[2]", "result": 0.5, "unit": "nM"}]}, {"smiles": "O=C(Nc1cccc(C(=O)O)c1)N[C@H]1CC[C@@H](Oc2ccc(F)cc2)CC1", "values": [{"measurement": "IC50", "setting": "[2]", "result": 590, "unit": "nM"}]}, {"smiles": "O=C(Nc1ccc(Br)cc1)N[C@H]1CC[C@@H](Oc2ccc(F)cc2)CC1", "values": [{"measurement": "inhibition", "setting": "[1]", "result": 80, "unit": "%"}, {"measurement": "IC50", "setting": "[2]", "result": 0.6, "unit": "nM"}]}, {"smiles": "O=C(Nc1ccc(I)cc1)N[C@H]1CC[C@@H](Oc2ccc(F)cc2)CC1", "values": [{"measurement": "inhibition", "setting": "[1]", "result": 76, "unit": "%"}, {"measurement": "IC50", "setting": "[2]", "result": 1, "unit": "nM"}]}, {"smiles": "O=C(Nc1ccc(C(F)(F)F)cc1)N[C@H]1CC[C@@H](Oc2ccc(F)cc2)CC1", "values": [{"measurement": "inhibition", "setting": "[1]", "result": 82, "unit": "%"}, {"measurement": "IC50", "setting": "[2]", "result": 1.2, "unit": "nM"}]}, {"smiles": "C[C@@H](NC(=O)NC12CC3CC(CC(C3)C1)C2)c1ccccc1", "values": [{"measurement": "inhibition", "setting": "[1]", "result": 10, "unit": "%"}, {"measurement": "IC50", "setting": "[2]", "result": 100, "unit": "nM"}]}, {"smiles": "COC(=O)c1cccc(NC(=O)N[C@H]2CC[C@@H](Oc3ccc(F)cc3)CC2)c1", "values": [{"measurement": "inhibition", "setting": "[1]", "result": 72, "unit": "%"}, {"measurement": "IC50", "setting": "[2]", "result": 2, "unit": "nM"}]}, {"smiles": "O=C(Nc1ccc(Cl)cc1)N[C@H]1CC[C@@H](Oc2ccc(F)cc2)CC1", "values": [{"measurement": "inhibition", "setting": "[1]", "result": 81, "unit": "%"}, {"measurement": "IC50", "setting": "[2]", "result": 0.7, "unit": "nM"}]}, {"smiles": "O=C(Nc1c(Cl)cccc1Cl)N[C@H]1CC[C@@H](Oc2ccc(F)cc2)CC1", "values": [{"measurement": "inhibition", "setting": "[1]", "result": 1, "unit": "%"}, {"measurement": "IC50", "setting": "[2]", "result": 940, "unit": "nM"}]}, {"smiles": "O=C(Nc1ccccc1OC(F)(F)F)N[C@H]1CC[C@@H](Oc2ccc(F)cc2)CC1", "values": [{"measurement": "inhibition", "setting": "[1]", "result": 2, "unit": "%"}, {"measurement": "IC50", "setting": "[2]", "result": 100, "unit": "nM"}]}, {"smiles": "COC(=O)c1ccc(NC(=O)N[C@H]2CC[C@@H](Oc3ccc(F)cc3)CC2)cc1", "values": [{"measurement": "inhibition", "setting": "[1]", "result": 62, "unit": "%"}, {"measurement": "IC50", "setting": "[2]", "result": 2.9, "unit": "nM"}]}, {"smiles": "CC(C)c1cccc(C(C)C)c1NC(=O)N[C@H]1CC[C@@H](Oc2ccc(F)cc2)CC1", "values": [{"measurement": "inhibition", "setting": "[1]", "result": 5, "unit": "%"}, {"measurement": "IC50", "setting": "[2]", "result": 50500, "unit": "nM"}]}]}
